Common to all, as to type: biochemical
For assay [1], the system named is T1, CYP2D (rat liver microsomes).
T1 construct: gene Cyp2d1; native enzymes in pooled liver microsomes of control male rats (n = 10); CYP2D1 and CYP2D2 named most abundant in liver
Briefly: bufuralol […]'-hydroxylation in liver microsomes, HPLC with fluorometric detection. As to conditions: NADPH-generating system; 0.5 mg protein/mL; no inhibitor; CYP2D isoenzymes mixed. (In general: Microsomes from liver hold many membrane-bound enzymes, among them those of drug oxidation.)

The test system of assay [2] is T2, CYP2D (rat brain microsomes).
T2 construct: gene Cyp2d4; native enzymes in pooled whole-brain microsomes of control male rats (n = 10); CYP2D4 named main brain form
Nature of the assay: bufuralol […]'-hydroxylation in whole-brain microsomes, HPLC with fluorometric detection. As to conditions: NADPH-generating system; 2 mg protein/mL; no inhibitor; CYP2D isoenzymes mixed.

The target in assay [3] is T2, CYP2D (rat brain microsomes). Nature of the assay: bufuralol […]'-hydroxylation in whole-brain microsomes, HPLC with fluorometric detection, Dixon plot. As to conditions: competitive; bufuralol 50, 100 and 200 µM; iloperidone 25-500 µM; 2 mg protein/mL; NADPH-generating system; CYP2D isoenzymes mixed.
The target in assay [4] is T1, CYP2D (rat liver microsomes). Briefly: bufuralol […]'-hydroxylation in liver microsomes, HPLC with fluorometric detection, Dixon plot. As to conditions: competitive; bufuralol 5, 10 and 20 µM; iloperidone 1-250 µM; 0.5 mg protein/mL; NADPH-generating system; CYP2D isoenzymes mixed.

The record followed here is PMC8700221, “Long-Term Treatment with Atypical Antipsychotic Iloperidone Modulates Cytochrome P450 2D (CYP2D) Expression and Activity in the Liver and Brain via Different Mechanisms” (Cells, 2021).

Regarding `CCc1cccc2cc(C(O)CNC(C)(C)C)oc12` (stereo not shown) [bufuralol], the Km in assay [1] is 8.26 µM; in assay [2] it was 492 µM.

Regarding `COc1cc(C(C)=O)ccc1OCCCN1CCC(c2noc3cc(F)ccc23)CC1` [iloperidone], the results for the Ki in assay [3] and in assay [4] were 462 µM and 11.5 µM, respectively.

As a reminder, the Km is the substrate concentration at which the rate is half of its maximum. As usually defined, the Ki is a dissociation constant, usually derived from enzyme kinetics or from competition with a known ligand.
